Measurements reported in patent US12319672B2, “Alpha-D-galactopyranoside derivatives” (Idorsia Pharmaceuticals Ltd, priority 2019, dated 2025).
pIC50: −log10 of the molar value.

Key:
human Gal-1 (hGal-1) = test: Competitive binding assay: binding of biotinylated hGal-1 to microplate-adsorbed asialofetuin (ASF); conditions: Activities on hGal-1; mean values of several measurements
Summary of the method: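 For hGal-1, a variant with all six cysteines replaced by serines is preferred. Either galectin, biotinylated at 300-1000 ng/mL, competes with compound for microplate-bound ASF over 3 h at 4° C; peroxidase/ABTS detection gives IC50, averaged.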

human Gal-3 (hGal-3) = human Gal-3 (hGal-3) (Homo sapiens (Human), UniProt P17931); test: Competitive binding assay: binding of biotinylated hGal-3 to microplate-adsorbed asialofetuin (ASF); conditions: Activity on hGal-3; mean values of several measurements
human Gal-3 (hGal-3), sequence (P17931 whole entry): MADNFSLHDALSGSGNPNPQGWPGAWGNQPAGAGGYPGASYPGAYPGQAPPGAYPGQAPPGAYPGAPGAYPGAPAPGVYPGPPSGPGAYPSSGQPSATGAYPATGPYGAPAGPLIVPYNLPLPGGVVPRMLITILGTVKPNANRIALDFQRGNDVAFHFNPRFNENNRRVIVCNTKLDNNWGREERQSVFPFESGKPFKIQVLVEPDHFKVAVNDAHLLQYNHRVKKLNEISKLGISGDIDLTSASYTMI
Summary of the method: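 Compounds in DMSO dilution series competed with 300-1000 ng/mL biotinylated hGal-3 for asialofetuin adsorbed on the plate (3 h, 4° C). Streptavidin-peroxidase at 80 ng/mL (1 h, 4° C) with ABTS gave a spectrophotometric read-out, and IC50 was reported as the mean of repeat runs.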

human Gal-1 (hGal-1), sequence (P09382 2-135 limits assumed): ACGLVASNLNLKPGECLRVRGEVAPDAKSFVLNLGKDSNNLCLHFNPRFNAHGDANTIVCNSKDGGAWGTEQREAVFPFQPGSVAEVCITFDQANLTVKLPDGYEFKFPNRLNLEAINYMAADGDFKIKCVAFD

Compound | pIC50 (human Gal-1 (hGal-1)) | pIC50 (human Gal-3 (hGal-3))
OC[C@H]1O[C@H](Cc2cc(C3(O)CCCC3)on2)[C@H](O)[C@@H](n2cc(-c3cc(F)c(F)c(F)c3)nn2)[C@H]1O [Ex 1.58] | 4.87 | 6.31
OC[C@H]1O[C@H](Cc2cc(C3(O)COC3)on2)[C@H](O)[C@@H](n2cc(-c3cc(F)c(F)c(F)c3)nn2)[C@H]1O [Ex 1.59] | 5.20 | 6.40
CO[C@@H]1[C@@H](n2cc(-c3cc(F)c(F)c(F)c3)nn2)[C@@H](O)[C@@H](CO)O[C@@H]1Cc1cc(C2CCN(C(=O)OC(C)(C)C)CC2)no1 [Ex 1.62] | 6.35 | 7.12
CO[C@@H]1[C@@H](n2cc(-c3cc(F)c(F)c(F)c3)nn2)[C@@H](O)[C@@H](CO)O[C@@H]1Cc1cc(C(C)(C)C)on1 [Ex 1.63] | 5.60 | 6.47
CO[C@@H]1[C@@H](n2cc(-c3cc(F)c(F)c(F)c3)nn2)[C@@H](O)[C@@H](CO)O[C@@H]1Cc1cc(C2CCOCC2)on1 [Ex 1.64] | 5.07 | 6.57
CO[C@@H]1[C@@H](n2cc(-c3cc(F)c(F)c(F)c3)nn2)[C@@H](O)[C@@H](CO)O[C@@H]1Cc1cc(C2CCCCC2)on1 [Ex 1.65] | 4.85 | 6.25
CO[C@@H]1[C@@H](n2cc(-c3cc(F)c(F)c(F)c3)nn2)[C@@H](O)[C@@H](CO)O[C@@H]1CC1=NOC(C(C)(C)C)C1 (stereo partly drawn) [Ex 1.66] | 5.42 | 5.97
CO[C@@H]1[C@@H](n2cc(-c3cc(F)c(F)c(F)c3)nn2)[C@@H](O)[C@@H](CO)O[C@@H]1CC1=NOC(C2CCN(C(=O)OC(C)(C)C)CC2)C1 (stereo partly drawn) [Ex 1.67] | 5.51 | 6.37
CO[C@@H]1[C@@H](n2cc(-c3cc(F)c(F)c(F)c3)nn2)[C@@H](O)[C@@H](CO)O[C@@H]1Cc1cc(C2(O)COC2)on1 [Ex 1.69] | 5.17 | 6.35
CO[C@@H]1[C@@H](n2cc(-c3cc(F)c(F)c(F)c3)nn2)[C@@H](O)[C@@H](CO)O[C@@H]1Cc1cc(C2CCCC2)on1 [Ex 1.71] | 5.28 | 6.64
CO[C@@H]1[C@@H](n2cc(-c3cc(F)c(F)c(F)c3)nn2)[C@@H](O)[C@@H](CO)O[C@@H]1Cc1cc(C2(O)CCCC2)on1 [Ex 1.72] | 5.29 | 6.44
CO[C@@H]1[C@@H](n2cc(-c3cc(F)c(F)c(F)c3)nn2)[C@@H](O)[C@@H](CO)O[C@@H]1Cc1cc(C2(O)CCCCC2)on1 [Ex 1.73] | 5.51 | 6.72
CO[C@@H]1[C@@H](n2cc(-c3cc(F)c(F)c(F)c3)nn2)[C@@H](O)[C@@H](CO)O[C@@H]1Cc1cc(C2CCC2)on1 [Ex 1.74] | 5.50 | 6.74
CO[C@@H]1[C@@H](n2cc(-c3cc(F)c(F)c(F)c3)nn2)[C@@H](O)[C@@H](CO)O[C@@H]1Cc1cc(C2(O)CCOCC2)on1 [Ex 1.75] | 5.45 | 6.40
CO[C@@H]1[C@@H](n2cc(-c3cc(F)c(F)c(F)c3)nn2)[C@@H](O)[C@@H](CO)O[C@@H]1Cc1cc(C2(O)CCCN(C(=O)OC(C)(C)C)CC2)on1 (stereo partly drawn) [Ex 1.76] | 4.88 | 5.34
OC[C@H]1O[C@H](Cc2cc(C3CCC4(CC3)OCCO4)on2)[C@H](O)[C@@H](n2cc(-c3cc(F)c(F)c(F)c3)nn2)[C@H]1O [Ex 1.77] | 5.17 | 6.15
CCOC(=O)C1CCC(O)(c2cc(C[C@H]3O[C@H](CO)[C@H](O)[C@H](n4cc(-c5cc(F)c(F)c(F)c5)nn4)[C@H]3O)no2)CC1 (stereo partly drawn) [Ex 1.78] | 5.02 | 6.00
CO[C@@H]1[C@@H](n2cc(-c3cc(F)c(F)c(F)c3)nn2)[C@@H](O)[C@@H](CO)O[C@@H]1Cc1cc(C2CCC(F)(F)CC2)on1 [Ex 1.79] | 5.37 | 6.57
CO[C@@H]1[C@@H](n2cc(-c3cc(F)c(F)c(F)c3)nn2)[C@@H](O)[C@@H](CO)O[C@@H]1Cc1cc(C2(O)CCC(C)(C)CC2)on1 [Ex 1.82] | 4.55 | 5.87
CO[C@@H]1[C@@H](n2cc(-c3cc(F)c(F)c(F)c3)nn2)[C@@H](O)[C@@H](CO)O[C@@H]1Cc1cc(C2(O)CCC(F)(F)CC2)on1 [Ex 1.83] | 5.09 | 6.40
CO[C@@H]1[C@@H](n2cc(-c3cc(F)c(F)c(F)c3)nn2)[C@@H](O)[C@@H](CO)O[C@@H]1Cc1cc(C2COC2)on1 [Ex 1.84] | 5.52 | 6.46
OC[C@H]1O[C@H](Cc2cc(C3CCN(c4ncco4)CC3)on2)[C@H](O)[C@@H](n2cc(-c3cc(F)c(F)c(F)c3)nn2)[C@H]1O [Ex 1.85] | 5.94 | 7.33
OC[C@H]1O[C@H](Cc2cc(C3CCN(c4nc5ccccc5s4)CC3)on2)[C@H](O)[C@@H](n2cc(-c3cc(F)c(F)c(F)c3)nn2)[C@H]1O [Ex 1.86] | < 4.00 | 7.05
OC[C@H]1O[C@H](Cc2cc(C3CCN(c4nccs4)CC3)on2)[C@H](O)[C@@H](n2cc(-c3cc(F)c(F)c(F)c3)nn2)[C@H]1O [Ex 1.87] | 5.71 | 7.10
COc1ccc(C2=NOC(C[C@@H]3O[C@H](CO)[C@H](O)[C@H](n4cc(-c5cc(F)c(F)c(F)c5)nn4)[C@H]3O)C2)cc1 (stereo partly drawn) [Ex 1.88] | 4.65 | 5.21

Next, values leading:

pIC50 (human Gal-1 (hGal-1)) | pIC50 (human Gal-3 (hGal-3)) | Compound
5.10 | 6.30 | OC[C@H]1O[C@H](Cc2cc(C3CC3)on2)[C@H](O)[C@@H](n2cc(-c3cc(F)c(F)c(F)c3)nn2)[C@H]1O [Ex 1.52]
5.54 | 6.46 | CC(C)(C)OC(=O)N1CC(c2cc(C[C@H]3O[C@H](CO)[C@H](O)[C@H](n4cc(-c5cc(F)c(F)c(F)c5)nn4)[C@H]3O)no2)C1 [Ex 1.53]
5.19 | 6.54 | CC(C)(C)OC(=O)N1CCCC(c2cc(C[C@H]3O[C@H](CO)[C@H](O)[C@H](n4cc(-c5cc(F)c(F)c(F)c5)nn4)[C@H]3O)no2)C1 (stereo partly drawn) [Ex 1.54]
4.38 | 6.18 | CC(C)(C)OC(=O)N1CCC(c2cc(C[C@H]3O[C@H](CO)[C@H](O)[C@H](n4cc(-c5cc(F)c(F)c(F)c5)nn4)[C@H]3O)no2)C1 (stereo partly drawn) [Ex 1.55]
4.82 | 6.47 | OC[C@H]1O[C@H](Cc2cc(C3CCCCC3)on2)[C@H](O)[C@@H](n2cc(-c3cc(F)c(F)c(F)c3)nn2)[C@H]1O [Ex 1.56]
4.90 | 6.40 | OC[C@H]1O[C@H](Cc2cc(C3CCCC3)on2)[C@H](O)[C@@H](n2cc(-c3cc(F)c(F)c(F)c3)nn2)[C@H]1O [Ex 1.57]
5.16 | 6.54 | OC[C@H]1O[C@H](Cc2cc(C3CCOCC3)on2)[C@H](O)[C@@H](n2cc(-c3cc(F)c(F)c(F)c3)nn2)[C@H]1O [Ex 1.60]
6.21 | 7.44 | CC(C)(C)OC(=O)N1CCC(O)(c2cc(C[C@H]3O[C@H](CO)[C@H](O)[C@H](n4cc(-c5cc(F)c(F)c(F)c5)nn4)[C@H]3O)no2)CC1 [Ex 1.61]
4.90 | 5.70 | CO[C@@H]1[C@@H](n2cc(-c3cc(F)c(F)c(F)c3)nn2)[C@@H](O)[C@@H](CO)O[C@@H]1Cc1cc(C2CCN(C(=O)OC(C)(C)C)C2)on1 (stereo partly drawn) [Ex 1.70]
4.36 | 6.96 | CC(C)(C)OC(=O)NC1CCC(c2cc(C[C@H]3O[C@H](CO)[C@H](O)[C@H](n4cc(-c5cc(F)c(F)c(F)c5)nn4)[C@H]3O)no2)CC1 (stereo partly drawn) [Ex 1.80]
4.84 | 6.70 | CC(C)(C)OC(=O)NC1CCC(c2cc(C[C@H]3O[C@H](CO)[C@H](O)[C@H](n4cc(-c5cc(F)c(F)c(F)c5)nn4)[C@H]3O)no2)CC1 (stereo partly drawn) [Ex 1.81]
